≈ marks a conversion by molar mass, not a printed value. Read-outs that look alike come from different tables or passages of the source.
What was measured:
[1] = system: Leishmania amazonensis promastigotes; assay: In vitro leishmanicidal activity (resazurin viability) against promastigotes; type: cell-based; conditions: for Activity against L. amazonensis promastigotes in words: concentrations up to 1000.0 μg mL^−1
Experimental: Culture of L. amazonensis (LTCP 9667 obtained by Giudice et al.) promastigotes were maintained at 24 °C in Schneider′s Drosophila medium (Sigma-Aldrich, St. Louis, MO, USA; pH 6.7) supplemented with 10% (v/v) inactivated fetal bovine serum (FBS, Gibco by Thermo Fisher Scientific, Carlsbad, CA, USA), ampicillin 500 mg m^−1, 1% and gentamicin 40 mg mL^−1, 0.1% (Sigma-Aldrich, St. Louis, MO, USA).
Promastigotes of L. amazonensis in log-phase growth were distributed in a 96-well plate (5 × 10^5 cells/well) and treated with the evaluated compounds solubilized in dimethyl sulfoxide (DMSO, Sigma-Aldrich, St. Louis, MO, USA) and diluted in Schneider′s medium in different concentrations (between 0.0 and 1000.0 μg mL^−1) and incubated for 24 h at 24 °C in a biochemical oxygen demand (BOD) incubator. Promastigotes incubated in the absence of test compounds were used as a negative control. Promastigotes treated with Amphotericin B (Sigma-Aldrich, St. Louis, MO, USA) were used as a positive control. The cellular viability of the parasites was evaluated using the colorimetric method of resazurin, adapted from Kulshrestha et al.. Briefly, after the treatment time, 50 μL of resazurin (2 mM mL^−1 in phosphate-buffered saline (PBS)) (Sigma-Aldrich, St. Louis, MO, USA) was added per well and the plates were again incubated for 6 h at 24 °C, then read in a spectrophotometer (Synerg H1, Biotek, Winooski, VT, USA) at 570 and 595 nm. Absorbance was used to calculate cell viability based on the following equation:(1) Viability (%)=Abs.570 nm−(Abs.595 nm × RO) test/Abs.570 nm –(Abs.595 nm × RO) control × 100 wherein:(2) RO= OD medium with resazurin in 570 nm−OD medium without resasurin in 570 nm/OD medium with resazurin in 595 nm−OD medium without resazurin in 595 nm
The IC50 values were obtained by a non-linear regression analysis from the viability values using the GraphPad Prism 5.0 program. All experiments were performed in triplicate from three independent experiments and the data were expressed as mean ± standard deviation (±SD).

[2] = system: L. chagasi promastigotes; conditions: cited from earlier work
[3] = Cytotoxicity on L929 fibroblasts (MTT assay); type: cell-based; conditions: mouse, MTT, mean ± SD; for viability at 24 h, 50 µg mL^−1: 50 µg mL^−1, 24 h; for viability at 24 h, 100 µg mL^−1: 100 µg mL^−1, 24 h
Experimental: (§1) Culture of the mouse fibroblast cell line (L929, ATCC CCL-1) were maintained in Dulbecco′s Modified Eagle Medium (DMEM, Sigma-Aldrich, St. Louis, MO, USA) supplemented with 10% heat-inactivated FBS and 1% streptomycin/penicillin (5000 units + 5 mg mL^−1, Sigma-Aldrich, St. Louis, MO, USA), and kept in a humid atmosphere at 37 °C and 5% CO2.
(§2) Fibroblasts were distributed in 96-well plates (2 × 10^4 cells/well) and incubated for 24 h in a 5% CO2 atmosphere at 37 °C. After this period, the medium was removed and the adhered cells were treated with the compounds at concentrations of 50.0 and 100.0 μg mL^−1 for 24 h under the same incubation conditions. Untreated cells were used as controls and considered with 100% cell viability. After the treatment period, cell viability was determined by MTT assay as described in ISO 10993-5 [50], with modifications. For this, the cell monolayer was washed twice with PBS (pH 7.4), and then 200 μl MTT (0.5 mg mL^−1 in PBS, Sigma-Aldrich, St. Louis, MO, USA) was added to each well. The plates were again incubated under the same conditions as listed above, for a period of 3 h. After the incubation time, the MTT was aspirated and the formazan crystals were solubilized in 200 μL of DMSO. After 10 min, the optical density (OD) was measured on a microplate reader at the wavelength of 570 nm. The results were expressed as percentage of viability according to the following equation:(3) Viability=Absorbance (treated cell)/Absorbance (control cell) × 100
(§3) Each experiment was conducted in quadruplicate and repeated at least three times. Data were expressed as mean ± standard deviation (±SD).

[4] = system: promastigotes of L. infantum chagasi; parameters: method as in PMID 27591136; conditions: up to the dose of 750 μg mL^−1; cited from earlier work
[5] = system: L. amazonensis promastigotes; conditions: cited from earlier work
[6] = system: L929 fibroblasts; assay: Cytotoxicity on L929 fibroblasts (MTT assay); type: cell-based; conditions: intensity scale of Rodrigues et al.; for Cytotoxicity class (symbol) at 50 µg mL^−1: 50 µg mL^−1, 24 h; for Cytotoxicity class (symbol) at 50 µg mL^−1 / Cytotoxicity class (symbol) at 100 µg mL^−1: MTT; for Cytotoxicity class (symbol) at 100 µg mL^−1: 100 µg mL^−1, 24 h
Experimental: as §1, §2, §3

[7] = system: L. donovani promastigotes; parameters: method as in PMID 18095647; conditions: cited from earlier work
[8] = system: promastigotes of L. infantum; parameters: method as in PMID 24365244; conditions: doses up to 400 μg mL^−1; cited from earlier work
[9] = system: promastigotes of L. tropica; parameters: method as in PMID 24365244; conditions: doses up to 400 μg mL^−1; cited from earlier work
[10] = system: promastigotes of L. major; parameters: method as in PMID 24365244; conditions: doses up to 400 μg mL^−1; cited from earlier work
[11] = system: L. panamensis; parameters: method as in earlier work; conditions: cited from earlier work
[12] = Leishmania amazonensis, 24 h, promastigotes, 24 h incubation, resazurin method, mean ± SD of three independent experiments in triplicate, read-out: IC50
[13] = Leishmania amazonensis, 24 h, promastigotes, 24 h incubation, resazurin method, mean ± SD of three independent experiments in triplicate, read-out: IC50 (µg mL^−1)
[14] = L. chagasi promastigotes, ref 28
[15] = Leishmania amazonensis, 24 h, read-out: IC50 (µg mL^−1)

Row | Structure (SMILES) | IC50 [1, 12] | IC50 [1, 13] | IC50 [2, 14] | viability at 24 h, 50 µg mL^−1 ([3]; L929 fibroblast cells) | viability at 24 h, 100 µg mL^−1 ([3]; L929 fibroblast cells) | Cytotoxicity class (symbol) at 50 µg mL^−1 [6] | Cytotoxicity classification in words at 50.0 μg mL^−1 [6] | Cytotoxicity class (symbol) at 100 µg mL^−1 [6] | also measured
1 | C=C(C)[C@@H]1CC=C(C)C(=O)C1 [(−)-Carvone, (5R)-2-methyl-5-prop-1-en-2-ylcyclohex-2-en-1-one] | 1300 ± 113 µM | 195 ± 16.9 µg/mL | > 300.0 µg/mL | – | – | – | – | – | viability at 24 h, 50 µg mL^−1 [3]: 65.1 ± 4.7%; viability at 24 h, 100 µg mL^−1 [3]: 58.2 ± 4.2%
2 | C=C[C@](C)(O)CCC=C(C)C [(−)-Linalool, (3R)-3,7-dimethylocta-1,6-dien-3-ol] | 1790 ± 156 µM | 276 ± 24 µg/mL | – | 65.7 ± 8.2% | 66.7 ± 7.8% | – | – | – | Changes in the viability of promastigotes in words [4]: did not identify changes in the viability; IC50 ([5]; L. amazonensis promastigotes): 0.0043 µg/mL (≈ 0.0279 µM)
3 | CC(C)[C@@H]1CC[C@@H](C)C[C@H]1O [(−)-Menthol, (1R,2S,5R)-5-methyl-2-propan-2-ylcyclohexan-1-ol] | 1270 ± 76.8 µM | 198 µg/mL | – | 83.8 ± 8% | 81.2 ± 2.4% | ** (Non-cytotoxic (viability >80%)) | non-cytotoxic | ** (Non-cytotoxic (viability >80%)) | IC50 ([1]; promastigotes, 24 h incubation, resazurin method, mean ± SD of three independent experiments in triplicate, listed as (–)-Menthol (7)): 198.9 ± 12.0 µg/mL
4 | C[C@@H]1[C@H](O)[C@@H](C)/C=C/C=C/C=C/C=C/C=C/C=C/C=C/[C@H](O[C@@H]2O[C@H](C)[C@@H](O)[C@H](N)[C@@H]2O)C[C@@H]2O[C@](O)(C[C@@H](O)C[C@@H](O)[C@H](O)CC[C@@H](O)C[C@@H](O)CC(=O)O[C@H]1C)C[C@H](O)[C@H]2C(=O)O [Amphotericin B, reference compound] | 0.054 ± 0.01 µM | 0.05 ± 0.01 µg/mL | – | – | – | – | – | – | –
5 | Cc1ccc(C(C)C)cc1O [Carvacrol, 2-methyl-5-propan-2-ylphenol] | – | – | 28.0 µg/mL (≈ 186 µM) | 51.3 ± 3% | 46.1 ± 2.9% | – | – | * (Moderate cytotoxicity (viability between >30% and <50%)) | IC50 ([1]; Leishmania amazonensis, 24 h): 169 ± 16 µM; IC50 [1, 15]: 25.4 ± 2.4 µg/mL; IC50 ([2]; L. chagasi promastigotes, ref 27): 2.3 µg/mL (≈ 15.3 µM); IC50 ([5]; L. amazonensis promastigotes, 72 h incubation, p-nitrophenol phosphate): 15.3 µg/mL (≈ 102 µM); Cytotoxicity classification in words at 100.0 μg mL^−1 [6]: moderate cytotoxicity
6 | CC1=CCC2C(C1)C2(C)C (stereo not shown) [Compound 3-Carene, 4,7,7-trimethylbicyclo[4.1.0]hept-3-ene] | 532 ± 136 µM | 72.5 ± 18.5 µg/mL | – | 84.1 ± 6.4% | 48.7 ± 6.7% | ** (Non-cytotoxic (viability >80%)) | non-cytotoxic | * (Moderate cytotoxicity (viability between >30% and <50%)) | IC50 [7]: 27.0 µg/mL (≈ 198 µM); Cytotoxicity classification in words at 100.0 μg mL^−1 [6]: moderate cytotoxicity
7 | C=CCc1ccc(O)c(OC)c1 [Eugenol, 2-methoxy-4-prop-2-enylphenol] | – | – | – | 78.1 ± 7% | 63.1 ± 1.7% | – | – | – | IC50 ([1]; Leishmania amazonensis, 24 h): 505 ± 37.8 µM; IC50 [1, 15]: 82.9 ± 6.2 µg/mL; IC50 ([2]; promastigote forms of L. chagasi): 56.1 µg/mL (≈ 342 µM)
8 | CC1(C)[C@@H]2CC[C@@]1(C)[C@H](O)C2 [Isoborneol, (1R,3R,4R)-4,7,7-trimethylbicyclo[2.2.1]heptan-3-ol] | 1230 ± 63.5 µM | 190 ± 9.8 µg/mL | – | 73.3 ± 9.4% | 72.9 ± 7.5% | – | – | – | Leishmanicidal activity in words [8]: No leishmanicidal activity was found; Leishmanicidal activity in words [9]: No leishmanicidal activity was found; Leishmanicidal activity in words [10]: No leishmanicidal activity was found
9 | Cc1ccc(C(C)C)c(O)c1 [Thymol, 5-methyl-2-propan-2-ylphenol] | 178 ± 24.6 µM | 26.8 ± 3.7 µg/mL | – | 64.5 ± 4% | 58.5 ± 6.7% | – | – | – | IC50 [11]: 194.3 µg/mL (≈ 1290 µM); IC50 ([5]; L. amazonensis): 22.6 µg/mL (≈ 150 µM)
10 | Cc1ccc(C(C)C)cc1 [p-Cymene, 1-methyl-4-propan-2-ylbenzene] | > 7450 µM | > 1000 µg/mL | 149.1 µg/mL (≈ 1110 µM) | 91.2 ± 6.6% | 87.1 ± 6.7% | ** (Non-cytotoxic (viability >80%)) | non-cytotoxic | ** (Non-cytotoxic (viability >80%)) | Activity against L. amazonensis promastigotes in words [1]: no effect on the viability; Activity against L. amazonensis promastigotes in words ([1]; listed as p-cymene): did not exhibit any activity
